The experiment has as its system BDF1 mice, P388 leukemia ip, median survival T/C. Briefly: NCI In Vivo Anticancer Drug Screen. Data for tumor model P388 Leukemia (intraperitoneal) in B6D2F1 (BDF1) mice. The note with it: endpoint: median survival time, higher = longer survival. In a few lines:
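Each value expresses how treatment altered survival: treated-mouse outcome over vehicle-mouse outcome, both groups bearing the transplanted tumour.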

Setting [1] is: dose: 400.0 mg/kg/injection, schedule: Q04DX003 (ip), vehicle: saline with Tween-80.
[2] abbreviates: dose: 50.0 mg/kg/injection, schedule: Q01DX009 (ip), vehicle: saline with Tween-80.
The mark [3] stands for this setting: dose: 100.0 mg/kg/injection, schedule: Q01DX009 (ip), vehicle: saline with Tween-80.
[4] abbreviates: dose: 200.0 mg/kg/injection, schedule: Q01DX009 (ip), vehicle: saline with Tween-80.
The mark [5] stands for this setting: dose: 3.12 mg/kg/injection, schedule: Q01DX009 (ip), vehicle: saline.
The mark [6] stands for this setting: dose: 6.25 mg/kg/injection, schedule: Q01DX009 (ip), vehicle: saline.
[7] abbreviates: dose: 400.0 mg/kg/injection, schedule: Q01DX009 (ip), vehicle: saline with Tween-80.
Where [8] appears, read: dose: 200.0 mg/kg/injection, schedule: Q01DX009 (ip), vehicle: Klucel (hydroxypropylcellulose) (HPC).

“And” between values parts separate entries of the source, which are not always exact repeats. Equal entries are not always repeated. Inconclusive results and toxic doses are left out.

Take `COc1ccc(N=C/C=C/c2ccccc2)cc1`: the T/C runs as follows: (dose: 100.0 mg/kg/injection, schedule: Q04DX003 (ip), vehicle: saline with Tween-80) 104 % of control; (dose: 200.0 mg/kg/injection, schedule: Q04DX003 (ip), vehicle: saline with Tween-80) 100 % of control; under setting [1], 109 % of control.
As for `COC(=O)/C=C1\Sc2ccc(Cl)cc2NC1=O`, the T/C under setting [2] was 93 % of control, the T/C under setting [3] is 86 % of control and the T/C under setting [4] was 93 % of control.
With `NC(=O)c1ccc[n+](Cc2c(Cl)cccc2Cl)c1`, the T/C (dose: 0.29 mg/kg/injection, schedule: Q01DX009 (ip), vehicle: saline) is 105 % of control; the T/C (dose: 0.44 mg/kg/injection, schedule: Q01DX009 (ip), vehicle: saline) was 115 % of control; the T/C (dose: 1.2 mg/kg/injection, schedule: Q04DX003 (ip), vehicle: saline) is 122 % of control; the T/C (dose: 1.25 mg/kg/injection, schedule: Q01DX009 (ip), vehicle: saline) was 96 % of control; the T/C (dose: 1.56 mg/kg/injection, schedule: Q01DX009 (ip), vehicle: saline) is 160 % of control; the T/C (dose: 2.5 mg/kg/injection, schedule: Q01DX009 (ip), vehicle: saline) was 96 % of control. The T/C was 185 % of control under setting [5]; 168 % of control (dose: 4.12 mg/kg/injection, schedule: Q01DX009 (ip), vehicle: saline); 96 % of control (dose: 5.0 mg/kg/injection, schedule: Q01DX009 (ip), vehicle: saline); 154 % of control and 191 % of control and 200 % of control under setting [6]; 163 % of control (dose: 8.9 mg/kg/injection, schedule: Q04DX003 (ip), vehicle: saline); 94 % of control (dose: 10.0 mg/kg/injection, schedule: Q01DX009 (ip), vehicle: saline). The T/C runs as follows: (dose: 13.5 mg/kg/injection, schedule: Q04DX003 (ip), vehicle: saline) 154 % of control and 158 % of control; (dose: 20.0 mg/kg/injection, schedule: Q01DX009 (ip), vehicle: saline) 109 % of control.
In the case of `CCCCCC(CN(C)C)C(O)/C=C/c1ccccc1Cl` (centres undefined), the T/C is 110 % of control under setting [5]; 100 % of control under setting [6]; 105 % of control (dose: 12.5 mg/kg/injection, schedule: Q01DX009 (ip), vehicle: saline); 107 % of control (dose: 25.0 mg/kg/injection, schedule: Q01DX009 (ip), vehicle: saline); 117 % of control (dose: 50.0 mg/kg/injection, schedule: Q01DX009 (ip), vehicle: saline).
For the compound `c1cc[c]([Sn]([S][Sn]([c]2ccccc2)([c]2ccccc2)[c]2ccccc2)([c]2ccccc2)[c]2ccccc2)cc1`, the T/C was 98 % of control under setting [2], 93 % of control under setting [3], 114 % of control under setting [4] and 86 % of control under setting [7].
Take `O=C(CO)c1ccc([N+](=O)[O-])cc1`: under setting [2], the T/C was 106 % of control.
Consider `Nc1ccc2c(-c3ccccc3)cc(NCCCN3CCOCC3)nc2n1`, for which the T/C runs as follows: (dose: 100.0 mg/kg/injection, schedule: Q04DX003 (ip), vehicle: saline) 104 % of control; (dose: 200.0 mg/kg/injection, schedule: Q04DX003 (ip), vehicle: saline) 100 % of control.
As to `Nc1ncc([N+](=O)[O-])cn1`, the T/C reads like this: (dose: 100.0 mg/kg/injection, schedule: Q01DX009 (ip), vehicle: Klucel (hydroxypropylcellulose) (HPC)) 95 % of control; under setting [8], 90 % of control.
As for `C=CCCCC[P+](c1ccccc1)(c1ccccc1)c1ccccc1`, the T/C (dose: 0.75 mg/kg/injection, schedule: Q01DX010 (ip), vehicle: saline) is 110 % of control; the T/C (dose: 1.5 mg/kg/injection, schedule: Q01DX010 (ip), vehicle: saline) is 115 % of control and 120 % of control; the T/C (dose: 6.0 mg/kg/injection, schedule: Q01DX010 (ip), vehicle: saline) was 152 % of control; the T/C (dose: 12.0 mg/kg/injection, schedule: Q01DX010 (ip), vehicle: saline) is 110 % of control.
Take `CCCCOC(=O)c1ccc(OCCOc2ccc(C(C)(C)CC(C)(C)C)cc2)c(NC(=O)CC(=O)c2cccc(N)c2)c1`: the T/C was 100 % of control (dose: 6.25 mg/kg/injection, schedule: Q04DX003 (ip), vehicle: saline sonified) and 91 % of control (dose: 12.5 mg/kg/injection, schedule: Q04DX003 (ip), vehicle: saline sonified).
Consider `O=C1Nc2ccc(Br)cc2C1=Nc1ccc2c(c1)OCO2`, for which the T/C is 113 % of control under setting [2], 111 % of control under setting [3], 108 % of control under setting [4] and 111 % of control under setting [7].
Turning to `O=[N+]([O-])c1ccc2scc3c4ccccc4nc-3c2c1`, the T/C under setting [6] was 103 % of control.
With `CC(/C=C/C=C/c1ccccc1)=N\O`, the T/C is, setting by setting: under setting [8], 90 % of control; (dose: 400.0 mg/kg/injection, schedule: Q01DX009 (ip), vehicle: Klucel (hydroxypropylcellulose) (HPC)) 95 % of control.
Consider `CN(C)c1ccc(/C=C/c2ccncc2)cc1`, for which the T/C (dose: 3.13 mg/kg/injection, schedule: Q01DX009 (ip), vehicle: saline with Tween-80) was 115 % of control.
As to `[NH-][n+]1c2c(nc3ccccc31)-c1cccc3cccc-2c13`, the T/C reads like this: (dose: 12.5 mg/kg/injection, schedule: Q01DX001 (ip), vehicle: Klucel (hydroxypropylcellulose) (HPC)) 111 % of control; (dose: 25.0 mg/kg/injection, schedule: Q01DX001 (ip), vehicle: Klucel (hydroxypropylcellulose) (HPC)) 100 % of control; (dose: 50.0 mg/kg/injection, schedule: Q01DX001 (ip), vehicle: Klucel (hydroxypropylcellulose) (HPC)) 100 % of control.
Regarding `CC(=O)Nc1ccc2c(O)cc(S(=O)(=O)O)cc2c1`, the T/C reads like this: (dose: 100.0 mg/kg/injection, schedule: Q01DX009 (ip), vehicle: saline) 107 % of control; (dose: 200.0 mg/kg/injection, schedule: Q01DX009 (ip), vehicle: saline) 98 % of control; (dose: 400.0 mg/kg/injection, schedule: Q01DX009 (ip), vehicle: saline) 114 % of control.
Turning to `COc1cc(C=Nc2ccc(Cl)cc2)ccc1N(CCCl)CCCl`, the T/C runs as follows: (dose: 2.2 mg/kg/injection, schedule: Q01DX009 (ip), vehicle: other) 162 % of control; (dose: 3.3 mg/kg/injection, schedule: Q01DX009 (ip), vehicle: other) 150 % of control; (dose: 5.0 mg/kg/injection, schedule: Q01DX009 (ip), vehicle: other) 179 % of control; (dose: 7.5 mg/kg/injection, schedule: Q01DX009 (ip), vehicle: other) 183 % of control; (dose: 22.0 mg/kg/injection, schedule: Q04DX003 (ip), vehicle: other) 245 % of control; (dose: 22.0 mg/kg/injection, schedule: Q04DX003 (ip), vehicle: saline) 113 % of control. Further, the T/C by setting is: (dose: 33.0 mg/kg/injection, schedule: Q04DX003 (ip), vehicle: other) 272 % of control; (dose: 33.0 mg/kg/injection, schedule: Q04DX003 (ip), vehicle: saline) 100 % of control; (dose: 50.0 mg/kg/injection, schedule: Q04DX003 (ip), vehicle: other) 186 % of control; (dose: 75.0 mg/kg/injection, schedule: Q04DX003 (ip), vehicle: saline) 181 % of control.
As to `COc1cc2ccc3c4cc5c(cc4cnc3c2cc1OC)OCO5`, the T/C runs as follows: (dose: 12.5 mg/kg/injection, schedule: Q01DX009 (ip), vehicle: saline with Tween-80) 109 % of control and 119 % of control; (dose: 12.5 mg/kg/injection, schedule: Q04DX003 (ip), vehicle: saline with Tween-80) 102 % of control; (dose: 25.0 mg/kg/injection, schedule: Q01DX009 (ip), vehicle: saline with Tween-80) 106 % of control; (dose: 25.0 mg/kg/injection, schedule: Q04DX003 (ip), vehicle: saline with Tween-80) 100 % of control; under setting [2], 106 % of control; (dose: 50.0 mg/kg/injection, schedule: Q04DX003 (ip), vehicle: saline with Tween-80) 92 % of control. In addition, the T/C is, setting by setting: under setting [3], 99 % of control and 100 % of control and 114 % of control; under setting [4], 107 % of control and 111 % of control; under setting [7], 101 % of control and 124 % of control; under setting [1], 92 % of control.
As to `CN1CCN(c2ccc([N+](=O)[O-])c3nonc23)CC1`, the T/C was 100 % of control (dose: 10.0 mg/kg/injection, schedule: Q01DX009 (ip), vehicle: saline with Tween-80); 100 % of control (dose: 20.0 mg/kg/injection, schedule: Q01DX009 (ip), vehicle: saline with Tween-80); 100 % of control (dose: 20.0 mg/kg/injection, schedule: Q04DX003 (ip), vehicle: saline with Tween-80); 99 % of control (dose: 40.0 mg/kg/injection, schedule: Q01DX009 (ip), vehicle: saline with Tween-80); 92 % of control (dose: 40.0 mg/kg/injection, schedule: Q04DX003 (ip), vehicle: saline with Tween-80).

The record behind these values is PubChem BioAssay AID328 (DTP/NCI, 2004).
